In patent US20110245294A1, “METHODS OF IMPROVING QUALITY OF SLEEP” (THERAVIDA, INC., priority 2010, published 2011):

Experiments:
healthy volunteers = conditions: some studies have suggested; cited from earlier work
[1] = test system: patients being treated for OAB
From the text: Enrollment of subjects already taking this medication was used to enable the collection of steady-state baseline information and to minimize discontinuations during the 4-week treatment period. On three consecutive days, subjects were asked to complete paper diaries where the subject answered questions related to the degree of difficulty of sleep and responded by using a VAS. These questions and VAS have been validated and used in other clinical studies. Furthermore, each subject relinquished the completed diary at the end of each treatment period following a review by clinic staff.
The methods used to collect information for assessment of quality of sleep, subjects were asked specific questions and they rated their quality of sleep using a VAS. The mean of the values obtained on each of the three days was used as the sole value for the baseline or treatment value. The methods used to evaluate effect on quality of sleep of the combination and oxybutynin alone are widely used and considered standard.
The VAS is a validated scale utilized in clinical trials and registrational studies of many drugs. Patients were instructed on how to complete the diary over 3 consecutive days and perform VAS assessments for quality of sleep on the diary days. The ratings were from 0 to 100 on a 100-mm line, and the patient was asked to rate themself by marking the horizontal line. For instance, quality of sleep was quantified as 0=easy and 100=difficult.

Structure (SMILES)	effect on sleep (healthy volunteers)	VAS quality of sleep response versus baseline or monotherapy, in words ([1]; 100-point mm scale, reduction from baseline)	Change in LSM from Baseline in Quality of Sleep ([1]; ITT population, N = 42, lower scores indicate improvement from baseline, P value 0.0073 between treatments) [mm]	Quality of Sleep Value (VAS), mean ([1]; mean over subjects, 0=easy, 100=difficult, 2 weeks treatment, baseline mean 37.6 mm) [mm]
O=C(O[C@H]1C[C@H]2CC[C@@H](C1)[N+]21CCCC1)C(O)(c1ccccc1)c1ccccc1 [trospium]	adverse effect on the sleep			
CCN(CC)CC#CCOC(=O)C(O)(c1ccccc1)C1CCCCC1 (centres unmarked) [Oxybutynin, oxybutynin]	adverse effect on the sleep	unchanged from baseline	3.7	41.3
